From US10168317B2, “Microfluidic device, system, and method for tracking single cells and single cell lineages” (CORNELL UNIVERSITY, priority 2012, dated 2019)
“And” between values parts separate entries of the source, which are not always exact repeats. Equal values may be shown once. “Also recorded” adds a separate entry of the source.

Columns and labels:
cells = settings: straight confinement microchannels; cited from earlier work
[1] = system: MDA-MB-231 metastatic breast cancer cells; assay: Cell morphology after taxol treatment in the microfluidic device; type: cell-based, human
From the text: FIGS. 29A-29B illustrate cancer cells treated with the chemotherapeutic taxol in embodiments of a microfluidic device and system of the present invention. […] FIG. 29B: This more extended morphology from taxol-treated cells after failed mitosis resembles the morphology of K20T cells, which are the taxol-resistant variant of the MDA-MB-231 cells.
FIGS. 29A-29B show cancer cells treated with the chemotherapeutic taxol in embodiments of a microfluidic device and system of the present invention. […] They also lose the ability to divide properly, resulting in an extensive blebbing phase followed by cytoskeletal recovery. After failed mitosis and recovery, the cells take on a different, more extended morphology, typically with more edges and extensions. This new morphology resembles the taxol-resistant variant of these cells. […] For timelapse stacks, 34 minutes elapsed between each frame.

MDA-MB-231 cells [2] = assay: Serial micropipette: pressure-driven transit across sequential subnucleus-scaled constrictions; type: cell-based, human; settings: 10 μM taxol for 1 day
Procedure: MDA-MB-231 cells were obtained from the NCl Physical-Sciences and Oncology Center. They were cultured in Leibovitz L-15 media (Life Technologies) with 10% fetal bovine serum (Atlanta Biologicals) and 1% Penicillin-Streptavidin (Life Technologies) at 37° C. without CO2.
Devices were treated with 1% bovine serum albumin (BSA) (Sigma-Aldrich) in serum-free media (L-15) for several hours before experiments in order to prevent stiction. Additionally, cells used in experiments were resuspended in serum-free media. Cells were loaded into the inlet reservoir of the device and experiments were automatically conducted as described in the design and operations section of this paper. The device was placed and kept on a heating plate set at 37° C. Videos were recorded at 500 ms per frame under a microscope, which produced the data of the experiments. Experimental analysis and cell tracking were performed using ImageJ and custom MATLAB programs. For statistical analysis, one-way ANOVA was used to determine statistical significance. Error bars on data represent standard error of the mean (s.e.m.). For taxol experiments, cells were incubated in 10 μM taxol (Cytoskeleton, Inc.) for 1 day prior to experiments. For fluorescence experiments, NucBlue (a live nucleus counterstain that is formulated from Hoechst 33342) (Life Technologies) was used and cells were incubated in the dye in complete growth media for 15 minutes.
The device consists of parallel microchannels. Each channel contains a series of microconstrictions to serve as a serial micropipette capable of deforming objects multiple times via pressure driven flow. The larger region of the channel has a width of 15 μm, which is on the order of the size of a cell. The smaller constriction region is 3.3 μm, which is smaller than the cell nucleus, thus ensuring that the cell undergoes a substantial deformation that samples a key organelle in the cell that often limits cell squeezing in physiological landscapes due to its size and stiffness. […]

MDA-MB-231 cells [3] = assay: MUSIC device: cell invasion across subnucleus barriers (SNI), timelapse; type: cell-based, human; settings: for ability to invade across subnucleus barriers / tight spaces: taxol (Paclitaxel)-treated MDA-MB-231 cells
Procedure: (§1) MDA-MB-231 cells were obtained from the NCl PS-OC and the ATCC. They were cultured in Leibovitz L-15 media (Life Technologies) supplemented with 10% fetal bovine serum (Atlanta Biologicals) and 1% Penicillin-Streptavidin (Life Technologies). K20T cells were obtained from the Giannakakou lab at Weill Cornell Medical College. They are a taxol-resistant derivative of MDA-MB-231 cells (K. M. Wiesen et al., Cancer Letters, 2007, 257, 227-235). They were cultured in L-15 media supplemented with 10% fetal bovine serum, 1% Penicillin-Streptavidin, and 15 nM paclitaxel (taxol) (Cytoskeleton, Inc). All cells were incubated at 37° C. without supplemented CO2.
Cells were loaded into the inlet reservoir regions at the ends of the microchannels and allowed to spontaneously migrate into the three-dimensionally confined channels. Devices with cells were incubated as in regular cell culture as described above. Timelapse experiments were performed once the cells were in the channels. For each experiment, devices were placed on top of a heating plate maintained at 37° C. Typical durations for timelapse experiments were around 1-2 days at a temporal resolution of 3.4 minutes. Cell tracking and measurements were performed by manual tracing via ImageJ. Data processing and analysis were performed via custom programs on MATLAB. The height of the microchannels used for all experiments with quantitative analysis was 10 μm. […] For statistical analysis, the Chi-squared test was used for probability measurements, and ANOVA statistics were used for all other measurements, unless otherwise specified. Error bars are standard error of the mean (s.e.m.). Standard DAPI staining was used for fluorescence imaging in FIG. 9. For cell viability in these devices, we found in a typical timelapse experiment of ˜23 hrs that less than 10% (5 out of 54) of the cells died while occupying the experimental field of view.
To develop an assay that can directionally focus the cell invasion program for high throughput quantitative analysis, we designed and fabricated a microfluidic device that induces serial dimensional modulation on the cell and nucleus scale (FIG. 3). We refer to this herein as a MUlti-staged Serial Invasion Channels (MUSIC) device. […] Then we incorporate a spatially tapering interface that connects the confinement channel to another even smaller channel (referred to as the subnucleus barrier (SNB)) with width smaller than the cell nucleus, which is one of the largest and stiffest organelles in the cell (P. Friedl et al., Current Opinion in Cell Biology, 2011, 23, 55-64). […] This device design in essence directs and reduces the 3-D invasion program into a 2-component process—1) the cell migrates in the x-direction while 2) necessarily altering its y-dimensions. Because the migration vector points in one direction (x) and the primary induced region of change is in the orthogonal direction (y), high throughput quantitative analysis can now be accomplished in 1-D, thus increasing the feasibility of experiments and enabling predetermined axes of interest. Furthermore, repeating patterns of the subnucleus barrier are placed along the length of the microchannel, enabling serial effects and multiple sampling of individual cells, therefore providing a way to elucidate the plasticity of mechanisms of invasion for each cell. In our experiments, we consider both 1) cell invasion in only the larger confinement channel region (referred to as LCI) and 2) invasion from the larger channel across the subnucleus barrier (referred to as SNI). Our device design incorporates two different lengths for the SNB—10 μm (SNB10) and 60 μm (SNB60), which are shorter and longer than a typical MDA-MB-231 cell, respectively.
To understand higher order effects of cell invasion, we first identified the nonlinearity in the cell displacement function during SNI. Then we segmented the process into 4 distinct phases and measured the time constants of each phase. […]

MDA-MB-231 cells [4] = assay: MUSIC device: cell migration in the larger channel LC (speed, mean-squared displacement); type: cell-based, human
Procedure: as §1
Cells were loaded into the inlet reservoir regions at the ends of the microchannels and allowed to spontaneously migrate into the three-dimensionally confined channels. Devices with cells were incubated as in regular cell culture as described above. Timelapse experiments were performed once the cells were in the channels. For each experiment, devices were placed on top of a heating plate maintained at 37° C. Typical durations for timelapse experiments were around 1-2 days at a temporal resolution of 3.4 minutes. Cell tracking and measurements were performed by manual tracing via ImageJ. Data processing and analysis were performed via custom programs on MATLAB. The height of the microchannels used for all experiments with quantitative analysis was 10 μm. […] Standard DAPI staining was used for fluorescence imaging in FIG. 9. […]
To develop an assay that can directionally focus the cell invasion program for high throughput quantitative analysis, we designed and fabricated a microfluidic device that induces serial dimensional modulation on the cell and nucleus scale (FIG. 3). […] Because the migration vector points in one direction (x) and the primary induced region of change is in the orthogonal direction (y), high throughput quantitative analysis can now be accomplished in 1-D, thus increasing the feasibility of experiments and enabling predetermined axes of interest. […]

MDA-MB-231 cells [5] = assay: Single-cell lineage drug response in parallel microfluidic channels; type: cell-based, human; settings: 1 nM Paclitaxel, constant treatment, day 2 and day 6, about one week
Procedure: FIG. 26 illustrates breast cancer cells treated with 1 nM Paclitaxel at day 2 (top) and day 6 (bottom) from initial treatment, as observed in one embodiment of a microfluidic device/microfluidic system of the present invention. […] The emergence of drug resistance can therefore be identified at the single-cell and single-cell lineage level, which can provide better biological resolution and can identify the onset of resistance more quickly especially if only a rare subpopulation of the bulk cells is resistant.
To move forward, we will expand these studies to distinguish the difference in drug responsivity between individual cell lineages enabled by our cell isolation technique previously described, and we will extend the time-scale of these experiments to accommodate for the emergence of drug resistance.

cell invasion = settings: together with protease inhibitors; cited from earlier work

| Compound | effect on migration rates in confinement (cells) | cell morphology after failed mitosis ([1]; taxol-treated cells after failed mitosis and recovery) | cell morphology after treatment ([1]; taxol-treated cells before failed mitosis) | transit time across the first constriction (MDA-MB-231 cells [2]; 10 μm-long constriction, about 400 pa, n=26) [s] | transit times across subsequent constrictions, taxol treated vs untreated cells (MDA-MB-231 cells [2]; constrictions 2 to 5) | cell length in the microchannel (cell size) (MDA-MB-231 cells [2]; n=26) [μm] | total invasion time across subnucleus barrier SNB10 (MDA-MB-231 cells [3]; 16 µM) [h] | factor of difference in total SNI time, treated vs untreated cells (MDA-MB-231 cells [3]; barrier 10 μm long, 16 μM taxol) | ability to invade across subnucleus barriers / tight spaces (MDA-MB-231 cells [3]) | ability to invade across subnucleus barriers / tight spaces (MDA-MB-231 cells [3]; listed as Paclitaxel) | total invasion time across subnucleus barrier SNB10 (MDA-MB-231 cells [3]; taxol-treated MDA-MB-231 cells, 16 μM taxol (printed 1604), 10 μm long barrier, lower-bound measurement, many cells not permeated by end of experiment) [h] | total invasion time across subnucleus barrier SNB60 (MDA-MB-231 cells [3]; taxol-treated MDA-MB-231 cells, 16 μM taxol (printed 1604), 60 μm long barrier, lower-bound measurement) [h] | factor of difference in average cell speed between treated and untreated cells (MDA-MB-231 cells [4]; larger channel region LC, 16 μM taxol) | power-law exponent of mean-squared displacement vs. time (MSD ∝ t^x) (MDA-MB-231 cells [4]; taxol-treated MDA-MB-231 cells in larger channel LC, n=10 cells, non-linear least squares fit) | average speed in the larger channel LC (MDA-MB-231 cells [4]; taxol-treated MDA-MB-231 cells, 16 μM (printed 1604), 3.4 minute time interval, n=10) [μm/min] | viability and proliferation of single-cell lineages under drug (MDA-MB-231 cells [5]) | effect on cell invasion in combination with protease inhibitors (cell invasion) |
| --- | --- | --- | --- | --- | --- | --- | --- | --- | --- | --- | --- | --- | --- | --- | --- | --- | --- |
| COC(=O)Nc1nc2ccc(C(=O)c3cccs3)cc2[nH]1 [Nocodazole] | migration rates are affected | – | – | – | – | – | – | – | – | – | – | – | – | – | – | – | – |
| CC(=O)O[C@H]1C(=O)[C@@]2(C)[C@H]([C@H](OC(=O)c3ccccc3)[C@]3(O)C[C@H](OC(=O)[C@H](O)[C@@H](NC(=O)c4ccccc4)c4ccccc4)C(C)=C1C3(C)C)[C@]1(OC(C)=O)CO[C@@H]1C[C@@H]2O [taxol, paclitaxel] | migration rates are affected | recover a more extended morphology | less extended, more rounded morphology | 550 ± 109 | transit times collapse between the two cell groups | 31±2 | ≥ 22 | > 20 | reduced ability in invading across tight spaces | can no longer invade | > 20 | ≥ 22 | ~2 | 1 and 1.014 | 0.53 | many cells underwent apoptosis but a select lineage continues to propagate; also recorded: many other cells in other channels underwent apoptosis after failed cell division | – |
| C[C@@H](N)[C@H]1CC[C@H](C(=O)Nc2ccncc2)CC1 [Y27632] | – | – | – | – | – | – | – | – | – | – | – | – | – | – | – | – | synergistic effects in preventing cell invasion |
